The record followed here is US11180767B2, “Protease deficient filamentous fungal cells and methods of use thereof” (GLYKOS FINLAND OY, priority 2012, dated 2021).

Non-standard residues stand in square brackets, D forms with d. Residues, ends and D or L forms follow the SMILES beside them. *: point of attachment. Sta = CC(C)C[C@H](N)[C@@H](O)CC(=O)O; Isovaleryl = CC(C)CC(=O)*

The subject of this experiment is proteases in supernatant from the 6-fold protease deletion strain M400. The experiment can be described thus: Protease stability of proteins spiked into supernatant of the 6-fold protease deletion strain. Format: biochemical, Trichoderma reesei. Particulars: pepstatin A 50 μM; SBTI 0.2 mg/ml; pH 4.2, 20 hours, 37°C. How it is done:
The protease stability of the model proteins IGF1, hGH, and IFNα2b were analyzed by spiking them into supernatant from the 6-fold protease deletion strain (Δpep1Δtsp1Δslp1Δgap1Δgap2Δpep4) M400. The supernatant was collected from a large shake flask culture CAH15. The undiluted supernatant from the shake flask cultivation CAH15 was incubated with the purified model proteins with and without pepstatin A (50 μM) and SBTI (0.2 mg/ml) inhibitors for 20 hours at 37° C. The 5 day culture supernatant pH was around 4.2. The reaction containing 0.05 μg μl of model protein was sampled after 20 hours. 50 mM sodium citrate pH 4.0 spiked with model proteins (0.05 g 1) was used as a buffer control.
From each reaction 10 μl was loaded into an 18% SDS PAGE gel and run for 30 minutes at 200 V. The proteins in the gel were then transferred to nitrocellulose for immunoblotting. The nitrocellulose membrane was blocked for 1 hour at room temperature with 5% milk in TBST buffer. The individual blots were probed with their specific primary antibody to detect the appropriate model protein for 1 hour at room temperature on a shaker. The mouse anti-IGF1 antibody (R&D systems #mab291) was used at 2 μg/ml diluted in TBST. The mouse anti-rhGH antibody (Abeam #ab51232) was used at 2 μg/ml diluted in TBST. The mouse anti-IFNα2b antibody (Abeam #ab9386) was used at 1 μg/ml diluted in TBST. After briefly washing the blot membranes with TBST, the secondary antibody was added for 1 hour at room temperature shaking. The secondary goat anti-mouse AP conjugated antibody (Biorad #170-6520) was diluted 1:10,000 in TBST.
This same spiking experiment as was done with MAB01 to investigate its stability in the 6 protease deletion supernatant with and without inhibitors (FIG. 43). Samples were taken as described above and immunoblotted with an anti-heavy chain AP conjugated antibody (Sigma #A3188). […] There was no obvious benefit having used inhibitors. The antibody was stable in this pH 4.2 supernatant. […]

On to `CC(C)CC(=O)N[C@H](C(=O)N[C@H](C(=O)N[C@@H](CC(C)C)[C@@H](O)CC(=O)N[C@@H](C)C(=O)N[C@@H](CC(C)C)[C@@H](O)CC(=O)O)C(C)C)C(C)C` [pepstatin A] (Isovaleryl-VV[Sta]A[Sta]-OH), for which the “stabilisation of hGH, IFNα2b and IGF1 in supernatant” value is listed as “remarkably stabilized”.
